This note sets out measurements from paper PMC7026418, “The kinase polypharmacology landscape of clinical PARP inhibitors” (Scientific Reports, 2020).

Targets include EGFR(E746-A750del) (Homo sapiens, UniProt P00533, DEL746-750); EIF2AK1 (Homo sapiens, UniProt Q9BQI3); ERBB2 (Homo sapiens, UniProt P04626); FRK (Homo sapiens, UniProt P42685).
What all share (experiment): biochemical
Holding throughout (parameters): DiscoveRx KINOMEscan active site-directed competition binding; percent of control kinase bound to immobilised ligand

Another assay addresses T1, CDKL2 (Homo sapiens, UniProt Q92772).
T1 sequence (Q92772 1-493): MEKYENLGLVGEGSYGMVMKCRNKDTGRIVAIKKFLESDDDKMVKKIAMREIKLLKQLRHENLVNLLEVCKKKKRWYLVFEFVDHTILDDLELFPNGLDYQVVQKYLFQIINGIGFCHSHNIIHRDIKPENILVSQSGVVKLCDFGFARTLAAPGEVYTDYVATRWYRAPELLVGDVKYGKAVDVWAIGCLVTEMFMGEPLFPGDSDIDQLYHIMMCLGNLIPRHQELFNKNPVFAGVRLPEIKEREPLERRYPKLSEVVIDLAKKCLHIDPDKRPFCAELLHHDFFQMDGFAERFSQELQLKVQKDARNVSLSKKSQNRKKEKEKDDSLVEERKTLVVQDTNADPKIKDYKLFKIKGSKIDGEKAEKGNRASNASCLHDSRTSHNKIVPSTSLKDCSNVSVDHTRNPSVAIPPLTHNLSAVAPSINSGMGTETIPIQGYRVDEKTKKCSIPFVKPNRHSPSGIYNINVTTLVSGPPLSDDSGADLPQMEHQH

In another assay the target is T2, EPHB2 (Homo sapiens, UniProt P29323).
T2 sequence (P29323 1-1055): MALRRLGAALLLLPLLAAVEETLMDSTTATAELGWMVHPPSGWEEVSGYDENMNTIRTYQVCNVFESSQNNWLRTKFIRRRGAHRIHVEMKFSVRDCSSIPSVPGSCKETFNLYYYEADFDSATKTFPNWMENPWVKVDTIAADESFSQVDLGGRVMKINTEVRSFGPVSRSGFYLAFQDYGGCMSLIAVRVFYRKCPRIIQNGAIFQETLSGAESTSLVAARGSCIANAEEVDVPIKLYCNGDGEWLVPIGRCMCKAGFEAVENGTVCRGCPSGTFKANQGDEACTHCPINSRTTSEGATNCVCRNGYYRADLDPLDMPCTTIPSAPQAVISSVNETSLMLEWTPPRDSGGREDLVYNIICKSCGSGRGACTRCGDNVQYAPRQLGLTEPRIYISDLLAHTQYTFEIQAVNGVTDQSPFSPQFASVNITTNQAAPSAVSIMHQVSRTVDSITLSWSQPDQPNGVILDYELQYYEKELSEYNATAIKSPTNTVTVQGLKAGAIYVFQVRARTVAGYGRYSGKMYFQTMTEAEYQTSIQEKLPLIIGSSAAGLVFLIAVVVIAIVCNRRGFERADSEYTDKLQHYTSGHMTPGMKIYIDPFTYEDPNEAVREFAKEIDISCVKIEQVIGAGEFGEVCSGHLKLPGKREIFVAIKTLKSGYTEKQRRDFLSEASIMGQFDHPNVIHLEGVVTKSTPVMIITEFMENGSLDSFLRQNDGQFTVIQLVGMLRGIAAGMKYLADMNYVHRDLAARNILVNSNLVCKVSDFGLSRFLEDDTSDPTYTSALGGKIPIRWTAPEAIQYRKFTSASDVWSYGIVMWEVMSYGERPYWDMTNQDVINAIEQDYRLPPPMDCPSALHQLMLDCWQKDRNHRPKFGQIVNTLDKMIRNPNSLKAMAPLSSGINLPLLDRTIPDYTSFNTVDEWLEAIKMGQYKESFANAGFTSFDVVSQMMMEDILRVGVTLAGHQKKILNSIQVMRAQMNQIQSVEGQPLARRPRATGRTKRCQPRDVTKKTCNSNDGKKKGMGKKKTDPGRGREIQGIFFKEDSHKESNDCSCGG

In the next assay the target is T3, TAK1 (Homo sapiens, UniProt O43318).
T3 construct: gene MAP3K7
T3 sequence (O43318 1-606): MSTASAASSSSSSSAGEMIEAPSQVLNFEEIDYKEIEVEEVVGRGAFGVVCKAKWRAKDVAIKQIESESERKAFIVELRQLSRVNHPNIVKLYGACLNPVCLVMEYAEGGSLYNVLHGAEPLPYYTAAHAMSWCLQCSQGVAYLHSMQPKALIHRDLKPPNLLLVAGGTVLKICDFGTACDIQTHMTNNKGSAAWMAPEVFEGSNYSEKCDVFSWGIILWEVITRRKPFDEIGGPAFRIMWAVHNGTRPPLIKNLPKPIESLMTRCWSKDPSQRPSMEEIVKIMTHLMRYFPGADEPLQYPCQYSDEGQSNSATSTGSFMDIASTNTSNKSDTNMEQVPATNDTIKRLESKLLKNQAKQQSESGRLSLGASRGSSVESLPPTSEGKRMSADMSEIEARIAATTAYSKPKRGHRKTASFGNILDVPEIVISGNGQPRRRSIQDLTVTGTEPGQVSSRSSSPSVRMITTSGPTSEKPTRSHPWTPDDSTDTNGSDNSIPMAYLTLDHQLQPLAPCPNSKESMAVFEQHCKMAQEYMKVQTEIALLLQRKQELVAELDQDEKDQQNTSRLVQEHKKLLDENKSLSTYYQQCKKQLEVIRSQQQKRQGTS

Where [1] appears, read: read-out: Niraparib (MK-4827) / %Ctrl @ 10000nM.
Where [2] appears, read: read-out: Talazoparib (BMN 673) / %Ctrl @ 10000nM.
Where [3] appears, read: read-out: Rucaparib / %Ctrl @ 10000nM, binding competition, % of control.
[4] abbreviates: read-out: Olaparib / %Ctrl @ 10000nM.

Structures are written as SMILES. Where two headings read alike, the source gives them in different places.

EIF2AK1, sequence (Q9BQI3 whole entry): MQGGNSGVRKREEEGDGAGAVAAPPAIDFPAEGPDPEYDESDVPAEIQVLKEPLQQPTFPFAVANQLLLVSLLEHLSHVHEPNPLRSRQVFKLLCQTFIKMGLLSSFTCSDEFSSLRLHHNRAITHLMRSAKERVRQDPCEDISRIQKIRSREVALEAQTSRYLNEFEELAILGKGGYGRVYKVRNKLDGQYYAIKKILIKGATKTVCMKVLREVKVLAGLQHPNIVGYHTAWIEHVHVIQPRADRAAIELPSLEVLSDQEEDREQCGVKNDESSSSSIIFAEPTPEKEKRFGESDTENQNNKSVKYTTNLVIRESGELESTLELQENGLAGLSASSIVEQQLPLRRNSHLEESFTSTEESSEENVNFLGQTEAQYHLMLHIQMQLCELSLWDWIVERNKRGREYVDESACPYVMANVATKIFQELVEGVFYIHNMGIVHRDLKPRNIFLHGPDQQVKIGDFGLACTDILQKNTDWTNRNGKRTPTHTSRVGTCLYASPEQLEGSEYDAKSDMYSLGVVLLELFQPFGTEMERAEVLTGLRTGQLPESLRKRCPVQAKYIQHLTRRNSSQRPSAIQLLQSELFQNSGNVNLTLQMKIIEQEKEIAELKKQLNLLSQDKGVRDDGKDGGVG
ERBB2, sequence (P04626 whole entry): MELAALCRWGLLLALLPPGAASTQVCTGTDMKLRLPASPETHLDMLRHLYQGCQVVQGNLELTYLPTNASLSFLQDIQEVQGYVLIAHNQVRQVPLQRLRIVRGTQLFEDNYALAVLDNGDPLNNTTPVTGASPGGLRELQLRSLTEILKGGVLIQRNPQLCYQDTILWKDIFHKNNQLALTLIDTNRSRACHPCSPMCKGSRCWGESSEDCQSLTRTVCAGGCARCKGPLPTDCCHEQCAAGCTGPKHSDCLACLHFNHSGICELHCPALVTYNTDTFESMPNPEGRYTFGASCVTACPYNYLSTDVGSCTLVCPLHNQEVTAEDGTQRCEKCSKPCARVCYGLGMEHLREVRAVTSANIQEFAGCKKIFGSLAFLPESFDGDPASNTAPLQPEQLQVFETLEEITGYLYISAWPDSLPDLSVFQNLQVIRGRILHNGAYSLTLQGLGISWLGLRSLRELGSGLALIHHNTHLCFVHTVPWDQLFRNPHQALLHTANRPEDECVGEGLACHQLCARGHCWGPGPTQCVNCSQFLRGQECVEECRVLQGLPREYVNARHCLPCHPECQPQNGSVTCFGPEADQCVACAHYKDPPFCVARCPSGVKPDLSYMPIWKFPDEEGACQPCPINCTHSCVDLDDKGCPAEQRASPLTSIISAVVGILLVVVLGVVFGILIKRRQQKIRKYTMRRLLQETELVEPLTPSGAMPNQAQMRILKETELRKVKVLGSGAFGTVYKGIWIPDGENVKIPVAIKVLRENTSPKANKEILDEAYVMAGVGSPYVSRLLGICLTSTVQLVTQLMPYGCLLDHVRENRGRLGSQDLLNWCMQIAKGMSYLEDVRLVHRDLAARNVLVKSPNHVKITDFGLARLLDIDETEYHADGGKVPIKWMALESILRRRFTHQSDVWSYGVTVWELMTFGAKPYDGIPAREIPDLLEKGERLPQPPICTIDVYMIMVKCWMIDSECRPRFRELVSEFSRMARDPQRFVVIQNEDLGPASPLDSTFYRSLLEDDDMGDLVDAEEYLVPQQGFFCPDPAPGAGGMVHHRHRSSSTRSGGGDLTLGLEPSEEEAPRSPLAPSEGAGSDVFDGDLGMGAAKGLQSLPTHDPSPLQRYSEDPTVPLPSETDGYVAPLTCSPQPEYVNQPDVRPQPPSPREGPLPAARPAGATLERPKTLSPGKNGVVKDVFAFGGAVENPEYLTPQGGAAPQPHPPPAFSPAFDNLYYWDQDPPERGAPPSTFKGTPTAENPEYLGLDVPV
EGFR(E746-A750del), sequence (P00533 with tags, fused parts or gaps DEL746-750): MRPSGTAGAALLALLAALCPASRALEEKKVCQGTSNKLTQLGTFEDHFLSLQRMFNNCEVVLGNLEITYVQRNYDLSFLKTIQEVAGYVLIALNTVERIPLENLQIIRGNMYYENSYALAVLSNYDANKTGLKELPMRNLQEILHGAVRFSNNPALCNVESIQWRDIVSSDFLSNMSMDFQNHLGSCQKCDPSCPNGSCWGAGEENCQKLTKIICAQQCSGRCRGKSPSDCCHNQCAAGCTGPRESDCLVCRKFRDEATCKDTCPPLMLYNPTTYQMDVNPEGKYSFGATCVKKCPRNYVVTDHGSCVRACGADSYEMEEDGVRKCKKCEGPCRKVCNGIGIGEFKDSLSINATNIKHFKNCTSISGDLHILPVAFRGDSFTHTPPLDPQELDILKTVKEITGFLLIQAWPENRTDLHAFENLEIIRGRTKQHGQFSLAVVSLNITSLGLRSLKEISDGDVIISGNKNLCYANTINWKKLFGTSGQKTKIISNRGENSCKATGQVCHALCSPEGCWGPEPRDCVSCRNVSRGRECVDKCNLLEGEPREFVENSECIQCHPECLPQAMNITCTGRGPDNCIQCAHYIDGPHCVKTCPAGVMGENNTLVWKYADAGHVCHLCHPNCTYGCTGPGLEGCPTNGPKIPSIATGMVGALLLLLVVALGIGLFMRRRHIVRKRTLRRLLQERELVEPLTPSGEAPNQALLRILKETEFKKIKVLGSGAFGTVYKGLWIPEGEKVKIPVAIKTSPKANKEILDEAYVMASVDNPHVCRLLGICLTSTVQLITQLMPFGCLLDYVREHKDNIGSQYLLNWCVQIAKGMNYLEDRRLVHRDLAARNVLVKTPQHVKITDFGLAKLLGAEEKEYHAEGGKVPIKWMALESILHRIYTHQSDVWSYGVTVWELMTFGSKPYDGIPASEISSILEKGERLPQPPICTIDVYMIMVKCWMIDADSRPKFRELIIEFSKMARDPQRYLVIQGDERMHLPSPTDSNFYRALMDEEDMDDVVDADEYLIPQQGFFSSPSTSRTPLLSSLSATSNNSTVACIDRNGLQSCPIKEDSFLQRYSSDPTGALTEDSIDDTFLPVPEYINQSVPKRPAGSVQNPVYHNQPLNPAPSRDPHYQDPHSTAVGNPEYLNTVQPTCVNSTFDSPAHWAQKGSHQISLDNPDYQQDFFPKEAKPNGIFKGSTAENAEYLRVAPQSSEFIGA
FRK, sequence (P42685 whole entry): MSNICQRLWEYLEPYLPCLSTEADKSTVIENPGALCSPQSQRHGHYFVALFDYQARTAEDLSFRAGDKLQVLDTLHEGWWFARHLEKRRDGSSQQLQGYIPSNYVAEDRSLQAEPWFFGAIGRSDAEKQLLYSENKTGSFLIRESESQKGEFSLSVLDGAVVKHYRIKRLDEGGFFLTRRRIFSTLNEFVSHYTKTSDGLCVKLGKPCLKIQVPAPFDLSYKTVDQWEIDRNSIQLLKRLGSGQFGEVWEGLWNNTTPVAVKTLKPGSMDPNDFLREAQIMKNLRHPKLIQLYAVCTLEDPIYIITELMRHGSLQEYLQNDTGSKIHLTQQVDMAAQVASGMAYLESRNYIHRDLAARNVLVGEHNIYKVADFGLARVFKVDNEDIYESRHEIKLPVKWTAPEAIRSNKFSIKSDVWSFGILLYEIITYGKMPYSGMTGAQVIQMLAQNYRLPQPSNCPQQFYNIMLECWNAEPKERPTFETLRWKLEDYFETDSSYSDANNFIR

For the molecule `NC(=O)c1cccc2cn(-c3ccc([C@@H]4CCCNC4)cc3)nc12` [Niraparib], the percent of control binding at 10 µM turned out to be 23% at CDKL2 (setting [1]); 96% on EGFR(E746-A750del) (setting [1]); 93% at EIF2AK1 (setting [1]); 75% on EPHB2 (setting [1]); 82% at ERBB2 (setting [1]); 91% on FRK (setting [1]). At TAK1 (setting [1]), the percent of control binding at 10 µM worked out at 38%.
With `Cn1ncnc1[C@H]1c2n[nH]c(=O)c3cc(F)cc(c23)N[C@@H]1c1ccc(F)cc1` [Talazoparib], the percent of control binding at 10 µM on CDKL2 (setting [2]) is 100%; at EGFR(E746-A750del) (setting [2]), 100%; at EIF2AK1 (setting [2]) it was 100%; at EPHB2 (setting [2]), 89%; on ERBB2 (setting [2]), 98%; on FRK (setting [2]), 85%. The percent of control binding at 10 µM at TAK1 (setting [2]) came to 100%.
`CNCc1ccc(-c2[nH]c3cc(F)cc4c3c2CCNC4=O)cc1` [Rucaparib]: the percent of control binding at 10 µM was 59% at CDKL2 (setting [3]); 81% at EGFR(E746-A750del) (setting [3]); 72% at EIF2AK1 (setting [3]); 91% on EPHB2 (setting [3]); 100% at ERBB2 (setting [3]); 97% at FRK (setting [3]). The percent of control binding at 10 µM at TAK1 (setting [3]) was found to be 38%.
Take `O=C(c1cc(Cc2n[nH]c(=O)c3ccccc23)ccc1F)N1CCN(C(=O)C2CC2)CC1` [Olaparib]: the percent of control binding at 10 µM at CDKL2 (setting [4]) stood at 99%; at EGFR(E746-A750del) (setting [4]), 97%; on EIF2AK1 (setting [4]), 83%; on EPHB2 (setting [4]), 95%; at ERBB2 (setting [4]) it was 100%; at FRK (setting [4]), 90%. The percent of control binding at 10 µM on TAK1 (setting [4]) is 77%.
